# Source: patent publication US20220408724A1, “METHOD FOR CONTROLLING METABOLISM OF BRANCHED FATTY ACID” (KAO CORPORATION, priority 2019, published 2022)
# Legend:
# Assay type in all cases: cell-based
# [1] = system: Micrococcus aloeverae; test: Suppression of metabolism of 14-methylhexadecanoic acid on cotton fabric; conditions: agent 250 μg/fabric g
# Procedure: (§1) A methanol solution in which 14-methylhexadecanoic acid (SIGMA-ALDRICH) was dissolved was added dropwise to 3 cm×3 cm pieces of sterilized plain-weave cotton fabric to make it adhered to the fabric. The adhesion amount of 14-methylhexadecanoic acid was set to 10 μg per piece of the plain-weave cotton fabric (100 μg/fabric g).
# (§2) Further, a methanol solution in which each metabolism controlling agent was dissolved was prepared and added dropwise to the fabric to which 14-methylhexadecanoic acid adhered, and it was thereafter dried for an hour. This fabric was placed in a sterilized screw tube bottle No. 3 (Maruemu Corporation) and 100 μl of the bacterial suspension was inoculated thereto, and culture was carried out under 37° C.; conditions for 21 hours.
# (§3) 3 ml of methanol was added to the screw tube bottle after culture, and extraction was carried out under ultrasonic irradiation for 30 minutes (20° C.). The extraction liquid was mixed with a (trimethylsilyl)diazomethane hexane solution (FUJIFILM Wako Pure Chemical Corporation) at 9:1 (volume ratio) and left overnight under room temperature and dark place conditions. After that, 14-methylhexadecanoic acid remaining on the fabric was quantified by GC. The quantification conditions for GC are as follows. • GC: Agilent 7890A • GC column: Agilent DB-1 30 m×250 μm×0.25 μm • Temperature rise condition: 50° C. (held for 3 minutes)-(10° C./min)-300° C. (held for 5 minutes) • Sample injection volume: 1 μl • Split ratio: 1:12 • Detector: FID
# (§4) The residual amount of 14-methylhexadecanoic acid after culture on the fabric to which the metabolism controlling agent was added was quantified, and the ratio of the residual amount to that of 14-methylhexadecanoic acid in the case of adding no metabolism controlling agent (control) was calculated as a metabolism suppression rate (%). The higher a numerical value thereof is, the more the metabolism is suppressed. Note that the metabolism suppression rate was determined by the following formula:
# (§5) Metabolism suppression rate(%)=[1−(100−A)/(100−B)]×100 • A: residual amount of 14-methylhexadecanoic acid of example or comparative example (μg/fabric g) • B: residual amount of 14-methylhexadecanoic acid of control (μg/fabric g)
# (§6) The metabolism of 14-methylhexadecanoic acid by bacteria of the genus Micrococcus was tested in the same manner as in example 1.
# (§7) In this example, Micrococcus aloeverae (strain isolated from clothing) was used as a microorganism.
# (§8) Further, in this example, a bacterial suspension of 10^7 (CFU/ml) prepared by using an SCD liquid medium (NIHON PHARMACEUTICAL CO., LTD.) diluted to 1/10 with ion exchange water was used as a bacterial suspension.
# (§9) Note that, in this example, C12OH (1-dodecanol) was used as the metabolism controlling agent.
# [2] = system: Micrococcus aloeverae; test: Suppression of metabolite 2-methylbutanoic acid from 14-methylhexadecanoic acid; conditions: agent 250 μg/fabric g
# Procedure: (§10) After culture on fabric prepared in the same manner as in the above (1), 3 ml of methanol was added, and extraction was carried out under ultrasonic irradiation for 30 minutes (20° C.). The extraction liquid was mixed with (a 1000 ppm methanol solution of) an ADAM reagent of Funakoshi Co., Ltd. at 1:1 (volume ratio) and left overnight under room temperature and dark place conditions. After that, 4-methyl-3-hexenoic acid as a metabolite from 14-methylhexadecanoic acid was quantified by HPLC. The quantification conditions are as follows.
# (§11) The production amount of 4-methyl-3-hexenoic acid after culture on the fabric to which each metabolism controlling agent was added was quantified, and the ratio of the production amount to that of 4-methyl-3-hexenoic acid in the case of adding no metabolism controlling agent (control) was calculated as a metabolite suppression rate (%). The higher a numerical value thereof is, the more the metabolism is suppressed. Note that the metabolite suppression rate was determined by the following formula:
# (§12) Metabolite suppression rate(%)=100×[(D−C)/D] • C: production amount of metabolite of example or comparative example (μg/fabric g) • D: production amount of metabolite of control (μg/fabric g)
# as §6, §7, §8
# Further, in this example, 2-methylbutanoic acid was quantified as a metabolite from 14-methylhexadecanoic acid, and the metabolite suppression rate was determined in the same manner as in example 1.
# as §9
# [3] = system: Micrococcus aloeverae; test: Measurement of viable bacterial count on fabric; conditions: agent 250 μg/fabric g
# Procedure: (§13) After culture on fabric prepared in the same manner as in the above (1), 9 mL of an LP diluent (manufactured by NIHON PHARMACEUTICAL CO., LTD.) was added, and the extraction of the bacteria was carried out under ultrasound for 10 minutes. The extraction liquid was poured and mixed to an SCD-LP agar medium (NIHON PHARMACEUTICAL CO., LTD.), and culture was thereafter carried out at 37° C.; for a day. The number of colonies obtained on each piece of the fabric was counted, and a common logarithm value thereof was measured as the viable bacterial count. […] In addition, the […], the more the viable bacterial count of the microorganism is maintained.
# as §6, §7, §8, §9
# [4] = system: Escherichia coli (NBRC3972); test: Suppression of metabolism of 14-methylhexadecanoic acid on cotton fabric
# Procedure: as §1, §2, §3, §4, §5
# (§14) The metabolism of 14-methylhexadecanoic acid by bacteria of the genus Escherichia (Escherichia coli) was tested in the same manner as in example 1.
# (§15) In this example, Escherichia coli (NBRC3972) was used as a microorganism.
# (§16) Further, in this example, a bacterial suspension of 10^6 (CFU/ml) prepared by using an NB liquid medium diluted to 1/10 with ion exchange water was used as a bacterial suspension.
# as §9
# [5] = system: Escherichia coli (NBRC3972); test: Suppression of metabolite 4-methylhexanoic acid from 14-methylhexadecanoic acid
# Procedure: as §10, §11, §12, §14, §15, §16
# (§17) Further, in this example, 4-methylhexanoic acid was quantified as a metabolite from 14-methylhexadecanoic acid, and the metabolite suppression rate was determined in the same manner as in example 1.
# as §9
# [6] = system: Escherichia coli (NBRC3972); test: Measurement of viable bacterial count on fabric
# Procedure: as §13, §14, §15, §16, §9
# [7] = system: Rhodotorula mucilaginosa; test: Suppression of metabolism of 14-methylhexadecanoic acid on cotton fabric; conditions: agent 250 μg/fabric g
# Procedure: as §1, §2, §3, §4, §5
# The metabolism of 14-methylhexadecanoic acid by yeast of the genus Rhodotorula was tested in the same manner as in example 1.
# In this example, Rhodotorula mucilaginosa (strain isolated from clothing) was used as a microorganism.
# Further, in this example, the bacteria were precultured under conditions of a PDA agar medium (Difco), 30° C.; and 48 hours.
# Further, in this example, a bacterial suspension of 10^7 (CFU/ml) prepared by using a PDB liquid medium (Difco) diluted to 1/10 with ion exchange water was used as a bacterial suspension.
# [8] = system: Rhodotorula mucilaginosa; test: Suppression of metabolite 4-methylhexanoic acid from 14-methylhexadecanoic acid; conditions: agent 250 μg/fabric g
# Procedure: The extraction liquid was mixed with (a 1000 ppm methanol solution of) an ADAM reagent of Funakoshi Co., Ltd. at 1:1 (volume ratio) and left overnight under room temperature and dark place conditions. […] The quantification conditions are as follows. […] The higher a numerical value thereof is, the more the metabolism is suppressed. Note that the metabolite suppression rate was determined by the following formula: […] In this example, Rhodotorula mucilaginosa (strain isolated from clothing) was used as a microorganism. Further, in this example, the bacteria were precultured under conditions of a PDA agar medium (Difco), 30° C.; and 48 hours. Further, in this example, a bacterial suspension of 10^7 (CFU/ml) prepared by using a PDB liquid medium (Difco) diluted to 1/10 with ion exchange water was used as a bacterial suspension.
# [9] = system: Staphylococcus aureus; test: Suppression of metabolism of 14-methylhexadecanoic acid on cotton fabric; conditions: agent 250 μg/fabric g
# Procedure: as §1, §2, §3, §4, §5
# (§18) The metabolism of 14-methylhexadecanoic acid by bacteria of the genus Staphylococcus (Staphylococcus aureus) was tested in the same manner as in example 1.
# (§19) In this example, Staphylococcus aureus (strain isolated from clothing) was used as a microorganism.
# (§20) Further, in this example, a bacterial suspension of 10^7 (CFU/ml) prepared by using an NB liquid medium diluted to 1/10 with ion exchange water was used as a bacterial suspension.
# [10] = system: Staphylococcus aureus; test: Suppression of metabolite 4-methylhexanoic acid from 14-methylhexadecanoic acid; conditions: agent 250 μg/fabric g
# Procedure: as §10, §11, §12, §18, §19, §20, §17, §9
# [11] = system: Staphylococcus aureus; test: Measurement of viable bacterial count on fabric; conditions: agent 250 μg/fabric g
# Procedure: as §13, §18, §19, §20, §9
SMILES,Metabolism suppression rate (%) [1],Metabolite suppression rate (%) [2],Bacterial count (Log (cfu/fabric cm^2)) [3],Metabolism suppression rate (%) ([4]; agent 500 μg/fabric g),Metabolism suppression rate (%) ([4]; agent 1000 μg/fabric g),Metabolite suppression rate (%) ([5]; agent 500 μg/fabric g),Metabolite suppression rate (%) ([5]; agent 1000 μg/fabric g),Bacterial count (Log (cfu/fabric cm^2)) ([6]; agent 500 μg/fabric g),Bacterial count (Log (cfu/fabric cm^2)) ([6]; agent 1000 μg/fabric g),Metabolism suppression rate (%) [7],Metabolite suppression rate (%) [8],Metabolism suppression rate (%) [9],Metabolite suppression rate (%) [10],Bacterial count (Log (cfu/fabric cm^2)) [11]
"CCCCCCCCCCCCCO [Example C13OH, 1-tridecanol]",41%,59%,6.7 Log (cfu/fabric cm^2),,,,,,,,,,,
"CCCCCCCCCO [Example C9OH, 1-nonyl alcohol]",,,,13%,25%,31%,33%,6.5 Log (cfu/fabric cm^2),6.3 Log (cfu/fabric cm^2),14%,21%,,,
"CCCCCCCCCCCCCCO [Example C14OH, 1-tetradecanol]",,,,27%,67%,47%,77%,6.7 Log (cfu/fabric cm^2),6.5 Log (cfu/fabric cm^2),14%,45%,42%,53%,5.6 Log (cfu/fabric cm^2)
"CCCCCCCCCCCCOCCOCCO [Example C12E2, diethylene glycol mono-1-dodecyl ether, reference compound]",−11%,8%,6.8 Log (cfu/fabric cm^2),−2%,,−2%,,6.5 Log (cfu/fabric cm^2),,,,7%,,
"CCCCCCCCCCCCCCCCCCO [Example C18OH, 1-octadecanol, reference compound]",−7%,1%,6.8 Log (cfu/fabric cm^2),−15%,3%,,0%,6.2 Log (cfu/fabric cm^2),5.9 Log (cfu/fabric cm^2),2%,,−1%,,5.6 Log (cfu/fabric cm^2)
"CCCCCCCCCCCCCCCCO [Example C16OH, 1-hexadecanol]",,,,,18%,,27%,,6.6 Log (cfu/fabric cm^2),24%,38%,16%,20%,6.1 Log (cfu/fabric cm^2)
"CCCCCCCCCCO [Example C10OH, 1-decanol]",33%,51%,7.0 Log (cfu/fabric cm^2),16%,38%,42%,75%,6.5 Log (cfu/fabric cm^2),6.4 Log (cfu/fabric cm^2),51%,46%,16%,35%,5.5 Log (cfu/fabric cm^2)
"CCCCCCCCCCCCOCCO [Example C12E1, ethylene glycol mono-1-dodecyl ether]",,,,,,,,,,24%,41%,,,
"CCCCCCCCCCCCOCCOCCOCCOCCOCCO [Example C12E5, pentaethylene glycol mono-1-dodecyl ether, reference compound]",−3%,6%,6.6 Log (cfu/fabric cm^2),,,,,,,,,,,
